Test system: HCC patient-derived spheroids (primary HCC tumorspheres)
Test: HCC patient-derived spheroid viability (CellTiterGlo 3D, ATP quantification)
Format: cell-based, human
Conditions: HCC spheroids from 15 different HCC patients; 6 days; H3L3 10 μg/mL, sorafenib 10 μM, nivolumab 10 μg/mL; vs control mAb; FIG. 1C
Source text: Fragments of tumor tissue (5×5 mm to 8×8 mm size) were excised from tumor mass of HCC patients (n=15 different donors, Table 2) and then processed with enzymatic and mechanical dissociation to generate clusters of tumor cells similarly as described recently (Crouchet E, et al., Nat Commun 2021; 12:5525; Jühling F, et al., Gut 2021; 70:157-69). Aggregates of cells were assembled into spheroids in 96-well Black/Clear Bottom Low Flange Ultra-Low Attachment Microplates (Corning) and cultured in MammoCult basal medium (STEMCELL Technologies), supplemented with human proliferation supplement (3.4%), hydrocortisone (0.056%), heparin (0.011%) and 50% patients' own serum.
Tumorspheres were treated for 6 days with 10 μg/mL isotype control mAb, with 10 μg/mL anti-Claudin-1 mAb “H3L3” (Table 1), with sorafenib (10 μM, Selleckchem) or with Nivolumab (10 μg/mL, Selleckchem) with at least duplicates per condition. Tumorsphere viability was assessed at day 6 using CellTiterGlo 3D (Promega) according to the manufacturer's instructions.

Molecule	response rate (defined as a mean decrease in cell viability of >15%) [%]
nivolumab [reference compound]	15
CNC(=O)c1cc(Oc2ccc(NC(=O)Nc3ccc(Cl)c(C(F)(F)F)c3)cc2)ccn1 [sorafenib, 4-[4-[[4-chloro-3-(trifluoromethyl)phenyl]carbamoylamino]phenoxy]-N -methyl-pyridine-2-carboxamide, reference compound]	33

— patent publication US20260015416A1, “TREATMENT OF DRUG-RESISTANT HEPATOCELLULAR CARCINOMA” (Alentis Therapeutics AG, priority 2022, published 2026)
